Legend:
[1] = tested on: bedstraw; experiment: Test B pre/postemergence bedstraw; assay type: in vivo, Galium aparine
Summary of the method: (§1)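 Test chemicals in a non-phytotoxic solvent mixture with surfactant were sprayed preemergence onto planted seeds and postemergence onto plants 2 to 18 cm tall (1- to 4-leaf stage). After twelve to sixteen days in a greenhouse, injury was visually rated against untreated controls from 0 (no effect) to 10 (complete control).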

[2] = tested on: blackgrass; experiment: Test B pre/postemergence blackgrass; assay type: in vivo, Alopecurus myosuroides
Summary of the method: as §1

[3] = tested on: surinam grass; experiment: Test B pre/postemergence surinam grass; assay type: in vivo, Brachiaria decumbens
Summary of the method: as §1

[4] = tested on: smallflower flatsedge; experiment: Test B flood test smallflower flatsedge; assay type: in vivo, Cyperus difformis
Summary of the method: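 Read-out is a visual response score from 0 (no effect) to 10 (complete control), assigned by comparison with untreated controls. Treatment was applied at the 2-leaf stage, and plants stayed in the greenhouse for twelve to sixteen days before scoring.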

[5] = tested on: bermuda-grass; experiment: Test D bermudagrass; assay type: in vivo, Cynodon dactylon; conditions: Preemergence, 0 to 100 scale
Summary of the method: (§2)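 Greenhouse pots, seeds in sandy loam; compounds formulated in non-phytotoxic solvent with surfactant; preemergence treatments went on the soil surface within one day of planting. Injury rated visually 14 to 21 days after application on a 0 (none) to 100 (complete control) scale.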

[6] = tested on: common pursiane; experiment: Test D common purslane; assay type: in vivo, Portulaca oleracea; conditions: Preemergence, 0 to 100 scale
Summary of the method: as §2

[7] = tested on: winter wheat; experiment: Test E winter wheat; assay type: in vivo, Triticum aestivum; conditions: Postemergence
Summary of the method: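 Each compound, carried in a non-phytotoxic solvent blend including surfactant, was applied (postemergence: over the top of young plants at 1- to 4-leaf stage). Plants stayed in the greenhouse about 21 to 28 days before visual comparison with untreated controls.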

[8] = tested on: blackgrass; experiment: Test E blackgrass; assay type: in vivo, Alopecurus myosuroides; conditions: Preemergence
[9] = tested on: green foxtail; experiment: Test E green foxtail; assay type: in vivo, Setaria viridis; conditions: Preemergence
[10] = tested on: Italian ryegrass; experiment: Test E Italian ryegrass; assay type: in vivo, Lolium multiflorum; conditions: Preemergence
[11] = tested on: winter wheat; experiment: Test E winter wheat; assay type: in vivo, Triticum aestivum; conditions: Preemergence
[12] = tested on: wild oat; experiment: Test E wild oat; assay type: in vivo, Avena fatua; conditions: Preemergence
[13] = tested on: winter barley; experiment: Test E winter barley; assay type: in vivo, Hordeum vulgare; conditions: Preemergence
[14] = Postemergence, Rate 62 g/ha, scale 0 to 10, 0 is no effect, 10 is complete control
[15] = Postemergence, Rate 250 g/ha, scale 0 to 10, 0 no effect, 10 complete control
[16] = Postemergence, Rate 1000 g/ha, scale 0 to 10 (0 no effect, 10 complete control)
[17] = Preemergence, Rate 31 g/ha, visual rating, scale 0 to 10 (0 no effect, 10 complete control)
[18] = Preemergence, Rate 62 g/ha, scale 0 to 10, 0 is no effect, 10 is complete control
[19] = Preemergence, Rate 125 g/ha, scale 0 to 10 (0 no effect, 10 complete control)
[20] = Preemergence, Rate 250 g/ha, scale of 0 to 10 where 0 is no effect and 10 is complete control
[21] = Preemergence, Rate 500 g/ha, scale 0 (no effect) to 10 (complete control)
[22] = Rate 31 g/ha, Postemergence, scale 0 to 10
[23] = Rate 125 g/ha, Postemergence, scale 0 to 10, 0 no effect, 10 complete control
[24] = Rate 500 g/ha, Postemergence, 0 to 10 scale (0 no effect, 10 complete control)
[25] = Rate 1000 g/ha, Preemergence, scale 0 to 10 (0 no effect, 10 complete control)
[26] = Rate 16 g/ha, 0 no injury, 100 complete control
[27] = Rate 32 g/ha, 0 no injury, 100 complete control
[28] = Rate 64 g/ha, 0 no injury, 100 complete control
[29] = Rate 125 g/ha, 0 no injury, 100 complete control
[30] = Rate 250 g/ha, 0 to 100 scale (0 no effect, 100 complete control)
[31] = Rate 125 g/ha, 0 to 100 scale (0 no effect, 100 complete control)
[32] = Rate 500 g/ha, 0 to 100 scale where 0 is no effect and 100 is complete control
[33] = Rate 1000 g/ha, 0 to 100 scale where 0 is no effect and 100 is complete control
[34] = Preemergence, Rate 62 g/ha, scale 0 to 10 (0 no effect, 10 complete control)
[35] = Preemergence, Rate 500 g/ha, scale 0 to 10 (0 no effect, 10 complete control)
[36] = Rate 62 g/ha, 0 to 100 scale, 0 no effect, 100 complete control

Cc1ccccc1-n1c(=O)on(C(=O)N(c2ccc(F)cc2)C(C)C)c1=O [Compound 4]
50: Plant response rating, Blackgrass ([8]; Rate 250 g/ha, 0 to 100 scale) | Plant response rating, Green foxtail [9, 31] | Plant response rating, I. Ryegrass [10, 32] | Plant response rating, Wild oat [12, 33]
85: Plant response rating, I. Ryegrass [10, 33]
10: Plant response rating, Blackgrass [2, 25] | Plant response rating, B. signalgrass [3, 25] | Plant response rating, Wild oat [12, 31] | Plant response rating, Barley (winter) [13, 31] | Plant response rating, Barley (winter) ([13]; Rate 250 g/ha, 0 to 100 scale) | Plant response rating, Barley (winter) [13, 32] | Plant response rating, Barley (winter) [13, 33]
100: Plant response rating, Blackgrass [8, 33] | Plant response rating, Green foxtail [9, 32] | Plant response rating, Green foxtail [9, 33]
98: Plant response rating, Bermudagrass ([5]; Rate 250 g/ha) | Plant response rating, Bermudagrass ([5]; Rate 500 g/ha)
20: Plant response rating, I. Ryegrass [10, 31] | Plant response rating, I. Ryegrass ([10]; Rate 250 g/ha, 0 to 100 scale)
2: B. signalgrass plant response rating [3, 24] | S. Flatsedge plant response rating ([4]; flood test, listed under Postemergence, Rate 250 g/ha, scale 0 to 10, 0 no effect, 10 complete control)
4: Plant response rating, Bedstraw [1, 20] | Bedstraw plant response rating [1, 21] | Blackgrass plant response rating [2, 23] | B. signalgrass plant response rating [3, 16] | S. Flatsedge plant response rating [4, 16]
25: Plant response rating, Wild oat [12, 32]
1: Plant response rating, Bedstraw [1, 19]
90: Plant response rating, Blackgrass [8, 32]
0: Bedstraw plant response rating [1, 14] | Bedstraw plant response rating [1, 17] | Plant response rating, Bedstraw [1, 18] | Bedstraw plant response rating [1, 22] | Blackgrass plant response rating [2, 14] | Blackgrass plant response rating [2, 17] | Plant response rating, Blackgrass [2, 18] | Blackgrass plant response rating [2, 22] | B. signalgrass plant response rating [3, 14] | B. signalgrass plant response rating [3, 15] | B. signalgrass plant response rating [3, 17] | Plant response rating, B. signalgrass [3, 18] | B. signalgrass plant response rating [3, 22] | B. signalgrass plant response rating [3, 23] | S. Flatsedge plant response rating [4, 14] | S. Flatsedge plant response rating ([4]; Rate 125 g/ha, Postemergence section (flood test species), scale 0 to 10, 0 no effect, 10 complete control) | Plant response rating, Bermudagrass [5, 26] | Plant response rating, Bermudagrass [5, 27] | Plant response rating, Bermudagrass [5, 28] | Plant response rating, C. purslane [6, 26] | Plant response rating, C. purslane [6, 27] | Plant response rating, C. purslane [6, 28] | Plant response rating, C. purslane [6, 29] | Plant response rating, C. purslane ([6]; Rate 250 g/ha) | Plant response rating, C. purslane ([6]; Rate 500 g/ha) | Plant response rating, Wheat (winter) ([7]; Rate 125 g/ha, 0 to 100 scale) | Plant response rating, Wheat (winter) [7, 30] | Plant response rating, Wheat (winter) ([7]; Rate 1000 g/ha, 0 to 100 scale, 0 is no effect and 100 is complete control) | Plant response rating, Wheat (winter) ([7]; Rate 500 g/ha, 0 to 100 scale, 0 no effect, 100 complete control) | Plant response rating, Wheat (winter) [11, 31] | Plant response rating, Wheat (winter) ([11]; Rate 250 g/ha, 0 to 100 scale) | Plant response rating, Wheat (winter) [11, 32] | Plant response rating, Wheat (winter) [11, 33]
5: Bedstraw plant response rating [1, 23] | Blackgrass plant response rating [2, 15]
30: Plant response rating, Bermudagrass [5, 29] | Plant response rating, Blackgrass [8, 31]
55: Plant response rating, Green foxtail ([9]; Rate 250 g/ha, 0 to 100 scale)
8: Bedstraw plant response rating [1, 16] | Plant response rating, Blackgrass [2, 20] | Blackgrass plant response rating [2, 21] | Plant response rating, B. signalgrass [3, 20]
6: Plant response rating, Bedstraw [1, 25] | Blackgrass plant response rating [2, 16] | Plant response rating, Blackgrass [2, 19] | Blackgrass plant response rating [2, 24]
7: Bedstraw plant response rating [1, 15] | Bedstraw plant response rating [1, 24] | Plant response rating, B. signalgrass [3, 19]
9: B. signalgrass plant response rating [3, 21]

CC(C)N(C(=O)n1oc(=O)n(C2CCCCC2)c1=O)c1ccc(F)cc1 [Compound 110]
85: Plant response rating, Green foxtail ([9]; Rate 250 g/ha, 0 to 100 scale)
8: Bedstraw plant response rating [1, 15] | Blackgrass plant response rating ([2]; Rate 500 g/ha, Postemergence, scale 0 to 10, 0 no effect, 10 complete control)
30: Plant response rating, Green foxtail [9, 36]
60: Plant response rating, Blackgrass ([8]; Rate 250 g/ha, 0 to 100 scale) | Plant response rating, Green foxtail [9, 31]
5: Plant response rating, Bedstraw [1, 20] | Plant response rating, Barley (winter) ([13]; Rate 250 g/ha, 0 to 100 scale)
4: Plant response rating, Bedstraw [1, 19] | Blackgrass plant response rating ([2]; Postemergence, Rate 125 g/ha, scale of 0 to 10 where 0 is no effect and 10 is complete control) | Blackgrass plant response rating [2, 15]
2: Bedstraw plant response rating [1, 14]
100: Plant response rating, Bermudagrass ([5]; Rate 250 g/ha) | Plant response rating, Bermudagrass ([5]; Rate 500 g/ha)
20: Plant response rating, Blackgrass [8, 36] | Plant response rating, I. Ryegrass ([10]; Rate 250 g/ha, 0 to 100 scale)
1: Blackgrass plant response rating ([2]; Rate 62 g/ha, Postemergence, scale of 0 to 10 where 0 is no effect and 10 is complete control)
3: Plant response rating, Blackgrass [2, 19] | B. signalgrass plant response rating [3, 34] | B. signalgrass plant response rating ([3]; Rate 500 g/ha, Postemergence, scale of 0 to 10 where 0 is no effect and 10 is complete control)
7: Bedstraw plant response rating [1, 35] | Plant response rating, Blackgrass [2, 20] | Blackgrass plant response rating [2, 35] | Plant response rating, B. signalgrass [3, 19] | B. signalgrass plant response rating [3, 35]
50: Plant response rating, Blackgrass [8, 31]
0: Bedstraw plant response rating [1, 34] | Blackgrass plant response rating [2, 34] | B. signalgrass plant response rating [3, 14] | B. signalgrass plant response rating [3, 15] | B. signalgrass plant response rating [3, 23] | S. Flatsedge plant response rating ([4]; Postemergence (flood test species), Rate 125 g/ha, scale of 0 to 10 where 0 is no effect and 10 is complete control) | S. Flatsedge plant response rating ([4]; Rate 62 g/ha, Postemergence section, flood test species, scale of 0 to 10 where 0 is no effect and 10 is complete control) | Plant response rating, S. Flatsedge ([4]; Rate 250 g/ha, Postemergence (flood test), scale 0 to 10, 0 is no effect, 10 is complete control) | S. Flatsedge plant response rating ([4]; Rate 500 g/ha, listed under Postemergence (flood test species), scale 0 to 10, 0 no effect, 10 complete control) | Plant response rating, C. purslane ([6]; Rate 250 g/ha) | Plant response rating, C. purslane ([6]; Rate 500 g/ha) | Plant response rating, Wheat (winter) ([7]; Rate 62 g/ha, 0 to 100 scale) | Plant response rating, Wheat (winter) ([7]; Rate 125 g/ha, 0 to 100 scale) | Plant response rating, Wheat (winter) [7, 30] | Plant response rating, I. Ryegrass [10, 36] | Plant response rating, I. Ryegrass [10, 31] | Plant response rating, Wheat (winter) [11, 36] | Plant response rating, Wheat (winter) [11, 31] | Plant response rating, Wheat (winter) ([11]; Rate 250 g/ha, 0 to 100 scale) | Plant response rating, Wild oat [12, 36] | Plant response rating, Wild oat [12, 31] | Plant response rating, Barley (winter) [13, 36] | Plant response rating, Barley (winter) [13, 31]

From patent publication US6737383B1, “Herbicidal oxadiazolidines” (priority 1999, dated 2004)
